Measurements from patent publication US20220145406A1, “BIOMARKERS, AND USES IN TREATMENT OF VIRAL INFECTIONS, INFLAMMATIONS, OR CANCER” (ABIVAX, priority 2018, published 2022).

System: CD4+ T cells
Assay: RNAseq differential gene expression
Format: cell-based, human
From the text: All statistical analyses and plots were done with R software v3.5. For normalization and processing, we used edgeR v3.22.1, EDASeq v2.14 and DESeq2 v1.20. We decided to use counts per million (CPM) over transcripts per million (TPM) mainly because TPM discards a lot of information about the original count sizes and thus would have produced too much noise for differential testing. The first step was to filter the data. We considered a gene to be expressed at a reasonable level in a sample if it had at least five counts for each million mapped reads in that sample. For marker selection, we used a type 1^(*) error α threshold set to 5%. enabling a highly flexible approach to the differential analyses despite the lack of replicates. For the same reason, the log2 fold change cutoff was set to 1.5 for both positive and negative values, and the cutoff p-value was typically ≤0.05. Those appropriate cutoffs allowed us to identify differentially expressed genes. The false discovery rate (FDR) values were computed for illustration purposes but were not taken into account in the decision due to the lack of replicates. The first methodology choice was Benjamini and Hochberg. This procedure provides less stringent control of type 1 errors compared to familywise error rate (FWER) procedures (such as the Bonferroni correction). We added an MDS plot for the data with R and edgeR package. The MDS plot produces a plot in which distances between samples correspond to the leading biological coefficient of variation (BCV) between those samples. […] We also produced several volcano plots with R and the EDASeq package. These plots were a good representation of the differential expression (DE) testing in the RNA-Seq experiments. […] The green points highlighted are markers that satisfied our selection criteria (significant in both p-value and log2FC). The yellow points highlighted are genes that satisfied the log2FC criterion but failed the p-value criterion. We retained these points to investigate further even though they had no decisional value.
A full-detailed report describing the complete analysis was submitted to Gene Expression Omnibus (GEO, https://www.ncbi.nlm.nih.gov/geo/query/acc.cgi?acc=GSE116073). Total RNA extraction was performed according to the Qiagen miRNeasy □ kit. RNA concentrations were determined using Qubit[…] fluorometric quantification and purity by the RNA 6000 Bioanalyzer kit (Agilent). RNA-Seq libraries were constructed with the TruSeq stranded mRNA sample preparation (low-throughput protocol) kit from Illumina, according to the manufacturer's instructions. Aliquots of 1.2 μg of total RNA were used for the construction of the libraries. The final cDNA libraries were validated with a Fragment Analyzer (Advanced Analytical, Ankeny, Iowa) and quantified with a KAPA qPCR kit (Kapa Biosystems, Wilmington, Mass.). On the 8 sequencing lanes of a flow cell V4, the 32 libraries were pooled in equal proportions by sets of 4 libraries per lane, denatured with NaOH and diluted to […] before clustering. Cluster formation and primer hybridization and single-end read, 50-cycle sequencing were performed on the cBot and HiSeq 2500 (Illumina, San Diego, Calif.), respectively. Image analysis and base calling were performed using the HiSeq Control Software with the Real-Time Analysis component. Demultiplexing was performed using Illumina's sequencing analysis software. The quality of the data was assessed using FastQC from the Babraham Institute and the Illumina software SAV (Sequence Analysis Viewer). Potential contaminants were investigated with the FastQ Screen software from the Babraham Institute.
In the data preprocessing step, the HiSeq control and real-time analysis software generates image analysis, base calling, and base call quality automatically in real time. “Dirty” raw reads were defined as reads that contained adaptor sequence or high content of unknown bases and low-quality reads. […]

[1] = ABX464_I_vs_DMSO_I, infected CD4 T cells
[2] = ABX464_NI_vs_DMSO_NI, uninfected CD4 T cells
[3] = uninfected CD4+ T cells, ABX464 vs untreated

## FC(F)(F)Oc1ccc(Nc2ccc3cccc(Cl)c3n2)cc1 [ABX464, 8-chloro-N-(4-(trifluoromethoxy)phenyl)quinolin-2-amine]
[1]
  FC CECR1: 3.412
  FC DPF2: 3.071
  FC LARS2: 2.991
  FC LGALS3: 3.009
  FC NBPF20: 8.164
  FC NOP9: 3.02
  FC SCML1: 7.214
  FC TOR1AIP2: 14.39
  log2(FC) CECR1: 1.771
  log2(FC) DPF2: 1.619
  log2(FC) LARS2: 1.58
  log2(FC) LGALS3: 1.589
  log2(FC) NBPF20: 3.029
  log2(FC) NOP9: 1.594
  log2(FC) SCML1: 2.851
  log2(FC) TOR1AIP2: 3.847
[2]
  FC CECR1: 3.587
  FC DPF2: 2.95
  FC HELLS: 0.2107
  FC HIST1H1D: 0.3392
  FC HOPX: 3.35
  FC LARS2: 2.99
  FC MZT2B: 0.3168
  FC NDUFB7: 0.3486
  FC RPS19BP1: 0.3377
  FC SCML1: 9.378
  FC SNORD3A: 0.1318
  FC TOR1AIP2: 11.2
  log2(FC) CECR1: 1.843
  log2(FC) DPF2: 1.561
  log2(FC) HELLS: −2.246
  log2(FC) HIST1H1D: −1.56
  log2(FC) HOPX: 1.744
  log2(FC) LARS2: 1.58
  log2(FC) MZT2B: −1.658
  log2(FC) NDUFB7: −1.52
  log2(FC) RPS19BP1: −1.566
  log2(FC) SCML1: 3.229
  log2(FC) SNORD3A: −2.924
  log2(FC) TOR1AIP2: 3.486
Infected CD4+ T cells, ABX464 vs untreated
  number of upregulated genes: 9 genes
Infected CD4+ T cells, ABX464 vs untreated (FIG. 2E legend)
  number of downregulated genes: 6 genes
[3]
  number of downregulated genes: 6 genes
  number of upregulated genes: 7 genes
